According to article PMC11183015, “In vivo stable ^211At-labeled prostate-specific membrane antigen-targeted tracer using a neopentyl glycol structure” (EJNMMI Radiopharmacy and Chemistry, 2024):
Marks after values point to notes of the source that are not given here.

Tests used:
Format in all cases: in vivo, mouse
[1] = Analysis of radiometabolites in urine by RP-HPLC; settings: normal ddY mice, urine up to 6 h after injection
Method: Urine samples were collected from 6-week-old ddY mice 6 h after injection of each ^125I-labeled PSMA derivative (100 µL, 370 kBq). After ethanol precipitation of proteins, the urine samples were filtered through a polycarbonate membrane (0.45 µm) and analyzed by RP-HPLC (System 2).

LNCaP cell xenografts = experiment: Biodistribution of radioactivity in tumor-bearing mice; settings: for Radioactivity in Intestine / Radioactivity in Neck / Radioactivity in Stomach: LNCaP tumor-bearing BALB/c-nu/nu mice; for Radioactivity in Blood / Radioactivity in Bone / Radioactivity in Heart / Radioactivity in Kidney / Radioactivity in Liver / Radioactivity in Lung / Radioactivity in Muscle / Radioactivity in Pancreas / Radioactivity in Spleen / Radioactivity in Tumor: male, BALB/c-nu/nu, mouse, in vivo
Method: Animal studies were conducted in accordance with the institutional guidelines approved by the Chiba University Animal Care Committee (Permit No. 4–183). Five-week-old male ddY mice and BALB/c-nu/nu mice were purchased from Japan SLC Inc. (Hamamatsu, Japan). LNCaP cells (5.0 × 10^6 cells) were suspended in 100 μL of PBS and Matrigel (BD Biosciences, Franklin Lakes, NJ, USA) in a 1:1 ratio. Tumor xenograft models were prepared via subcutaneous injection of this LNCaP cell suspension into BALB/c nude mice.
(§1) Biodistribution studies were conducted using male BALB/c-nu/nu mice bearing LNCaP cell xenografts at 1 and 3 h postinjection of [^211At]At-NpG-D-PSMA (100 µL, 37 kBq) and 1 and 6 h postinjection of ^125I-labeled PSMA derivative (100 µL, 11.1 kBq). In the blocking study, [^125I]I-NpG-D-PSMA was coinjected with 2-PMPA (50 mg/kg weight) into tumor-bearing mice via the tail vein. At 1 h postinjection, the mice were sacrificed. The tissues of interest were excised and weighed, and the radioactivity counts in each tissue were determined using an auto-well gamma counter. Each value was expressed as the mean percent injected dose/g tissue ± SD for a group of 3–5 animals, except those for the stomach, intestine, and thyroid.

PSMA = PSMA (Homo sapiens, UniProt Q04609); experiment: Blocking study with 2-PMPA in tumor-bearing mice; set-up: Tumor accumulation of [^125I]I-NpG-D-PSMA with or without 2-PMPA; from tissue; host or cells: LNCaP xenograft tumor in male BALB/c-nu/nu mice; settings: LNCaP tumor-bearing mice, 2-PMPA 50 mg/kg coinjected, 1 h
Method: as §1

[2] = Biodistribution of radioactivity in normal mice
Method: Six-week-old male ddY mice were injected via the tail vein with each radiolabeled PSMA derivative. Animals were sacrificed and the organs were dissected at 10 min, 1 h, 3 h, and 6 h after injection. Metabolic cages were used for housing normal mice. The tissues of interest were excised and weighed, and the radioactivity counts in each tissue were determined using an auto-well gamma counter. Each value was expressed as the mean percent injected dose/g tissue ± SD for a group of 3–5 animals, except those for the stomach, intestine, and thyroid.

[3] = normal ddY mice, i.v., 6 h, metabolic cages

Sequence of PSMA (Q04609 whole entry): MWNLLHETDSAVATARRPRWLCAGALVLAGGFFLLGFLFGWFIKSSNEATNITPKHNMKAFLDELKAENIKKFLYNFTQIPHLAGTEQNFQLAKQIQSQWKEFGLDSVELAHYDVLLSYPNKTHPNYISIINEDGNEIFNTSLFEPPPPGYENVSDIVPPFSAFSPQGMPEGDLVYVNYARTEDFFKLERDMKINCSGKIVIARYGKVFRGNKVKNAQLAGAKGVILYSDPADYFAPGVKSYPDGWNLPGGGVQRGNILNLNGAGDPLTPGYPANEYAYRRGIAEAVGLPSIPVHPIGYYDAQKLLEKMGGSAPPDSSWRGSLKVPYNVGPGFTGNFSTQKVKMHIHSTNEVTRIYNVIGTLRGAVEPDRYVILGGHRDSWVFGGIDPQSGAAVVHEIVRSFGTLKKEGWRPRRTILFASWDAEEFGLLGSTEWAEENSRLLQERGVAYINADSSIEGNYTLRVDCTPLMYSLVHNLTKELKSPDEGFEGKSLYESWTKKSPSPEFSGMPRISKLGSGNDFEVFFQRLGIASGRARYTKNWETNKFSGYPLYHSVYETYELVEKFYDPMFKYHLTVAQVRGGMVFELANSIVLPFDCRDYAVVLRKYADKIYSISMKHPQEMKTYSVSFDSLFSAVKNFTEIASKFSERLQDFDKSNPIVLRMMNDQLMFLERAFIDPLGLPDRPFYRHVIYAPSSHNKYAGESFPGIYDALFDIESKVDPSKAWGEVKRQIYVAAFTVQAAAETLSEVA

- Form of radioactivity excreted in urine [1]: only intact [^125I]I-NpG-D-PSMA
- Radioactivity in Intestine (LNCaP cell xenografts; 1 h): 1.66 ± 0.29 %ID
- Radioactivity in Neck (LNCaP cell xenografts; 1 h): 0.77 ± 0.17 %ID
- Radioactivity in Stomach (LNCaP cell xenografts; 1 h): 0.19 ± 0.04 %ID
- Radioactivity in Intestine (LNCaP cell xenografts; 6 h): 1.51 ± 0.61 %ID
- Radioactivity in Neck (LNCaP cell xenografts; 6 h): 0.10 ± 0.01 %ID
- Radioactivity in Stomach (LNCaP cell xenografts; 6 h): 0.17 ± 0.10 %ID
- Radioactivity in Blood (LNCaP cell xenografts; 1 h): 0.64 ± 0.04 %ID/g
- Radioactivity in Bone (LNCaP cell xenografts; 1 h): 0.25 ± 0.02 %ID/g
- Radioactivity in Heart (LNCaP cell xenografts; 1 h): 0.89 ± 0.09 %ID/g
- Radioactivity in Kidney (LNCaP cell xenografts; 1 h): 275 ± 17.6 %ID/g
- Radioactivity in Liver (LNCaP cell xenografts; 1 h): 0.79 ± 0.06 %ID/g
- Radioactivity in Lung (LNCaP cell xenografts; 1 h): 2.80 ± 0.09 %ID/g
- Radioactivity in Muscle (LNCaP cell xenografts; 1 h): 0.27 ± 0.05 %ID/g
- Radioactivity in Pancreas (LNCaP cell xenografts; 1 h): 0.84 ± 0.25 %ID/g
- Radioactivity in Spleen (LNCaP cell xenografts; 1 h): 30.5 ± 7.49 %ID/g
- Radioactivity in Tumor (LNCaP cell xenografts; 1 h): 20.4 ± 6.92 %ID/g
- Radioactivity in Blood (LNCaP cell xenografts; 6 h): 0.06 ± 0.03 %ID/g
- Radioactivity in Bone (LNCaP cell xenografts; 6 h): 0.07 ± 0.02 %ID/g
- Radioactivity in Heart (LNCaP cell xenografts; 6 h): 0.10 ± 0.04 %ID/g
- Radioactivity in Kidney (LNCaP cell xenografts; 6 h): 160 ± 89.9 %ID/g
- Radioactivity in Liver (LNCaP cell xenografts; 6 h): 0.07 ± 0.03 %ID/g
- Radioactivity in Lung (LNCaP cell xenografts; 6 h): 0.22 ± 0.09 %ID/g
- Radioactivity in Muscle (LNCaP cell xenografts; 6 h): 0.07 ± 0.04 %ID/g
- Radioactivity in Pancreas (LNCaP cell xenografts; 6 h): 0.12 ± 0.05 %ID/g
- Radioactivity in Spleen (LNCaP cell xenografts; 6 h): 1.55 ± 0.75 %ID/g
- Radioactivity in Tumor (LNCaP cell xenografts; 6 h): 20.8 ± 6.84 %ID/g
- Accumulation in the tumor and spleen with coinjected 2-PMPA (PSMA): inhibited by 2-PMPA
- Radioactivity in Blood ([2]; normal ddY mice, i.v., 10 min): 1.31 ± 0.10^c %ID/g
- Radioactivity in Bone ([2]; normal ddY mice, i.v., 10 min): 0.71 ± 0.07^c %ID/g
- Radioactivity in Heart ([2]; normal ddY mice, i.v., 10 min): 0.76 ± 0.08^c %ID/g
- Radioactivity in Intestine ([2]; normal ddY mice, i.v., 10 min): 2.76 ± 0.02^c %ID
- Radioactivity in Kidney ([2]; normal ddY mice, i.v., 10 min): 58.5 ± 2.27^c %ID/g
- Radioactivity in Liver ([2]; normal ddY mice, i.v., 10 min): 0.83 ± 0.12^c %ID/g
- Radioactivity in Lung ([2]; normal ddY mice, i.v., 10 min): 2.11 ± 0.16^c %ID/g
- Radioactivity in Muscle ([2]; normal ddY mice, i.v., 10 min): 0.47 ± 0.07^c %ID/g
- Radioactivity in Neck ([2]; normal ddY mice, i.v., 10 min): 0.48 ± 0.06^c %ID
- Radioactivity in Pancreas ([2]; normal ddY mice, i.v., 10 min): 0.63 ± 0.15^c %ID/g
- Radioactivity in Spleen ([2]; normal ddY mice, i.v., 10 min): 2.09 ± 0.83 %ID/g
- Radioactivity in Stomach ([2]; normal ddY mice, i.v., 10 min): 0.28 ± 0.06 %ID
- Radioactivity in Blood ([2]; normal ddY mice, i.v., 1 h): 0.18 ±0.02 %ID/g
- Radioactivity in Bone ([2]; normal ddY mice, i.v., 1 h): 0.30 ± 0.25 %ID/g
- Radioactivity in Heart ([2]; normal ddY mice, i.v., 1 h): 0.14 ± 0.7 %ID/g
- Radioactivity in Intestine ([2]; normal ddY mice, i.v., 1 h): 2.97 ± 0.24^c %ID
- Radioactivity in Kidney ([2]; normal ddY mice, i.v., 1 h): 74.6 ± 14.9^c %ID/g
- Radioactivity in Liver ([2]; normal ddY mice, i.v., 1 h): 0.17 ± 0.07 %ID/g
- Radioactivity in Lung ([2]; normal ddY mice, i.v., 1 h): 0.38 ± 0.06 %ID/g
- Radioactivity in Muscle ([2]; normal ddY mice, i.v., 1 h): 0.11 ± 0.08 %ID/g
- Radioactivity in Neck ([2]; normal ddY mice, i.v., 1 h): 0.11 ± 0.03^c %ID
- Radioactivity in Spleen ([2]; normal ddY mice, i.v., 1 h): 0.20 ± 0.01 %ID/g
- Radioactivity in Stomach ([2]; normal ddY mice, i.v., 1 h): 0.18 ± 0.00 %ID
- Radioactivity in Blood ([2]; normal ddY mice, i.v., 3 h): 0.04 ± 0.02 %ID/g
- Radioactivity in Bone ([2]; normal ddY mice, i.v., 3 h): 0.21 ± 0.28 %ID/g
- Radioactivity in Heart ([2]; normal ddY mice, i.v., 3 h): 0.05 ± 0.04 %ID/g
- Radioactivity in Intestine ([2]; normal ddY mice, i.v., 3 h): 3.30 ± 0.08^c %ID
- Radioactivity in Kidney ([2]; normal ddY mice, i.v., 3 h): 22.9 ± 16.5 %ID/g
- Radioactivity in Liver ([2]; normal ddY mice, i.v., 3 h): 0.05 ± 0.03 %ID/g
- Radioactivity in Lung ([2]; normal ddY mice, i.v., 3 h): 0.12 ± 0.05 %ID/g
- Radioactivity in Muscle ([2]; normal ddY mice, i.v., 3 h): 0.05 ± 0.03 %ID/g
- Radioactivity in Neck ([2]; normal ddY mice, i.v., 3 h): 0.03 ± 0.02^c %ID
- Radioactivity in Pancreas ([2]; normal ddY mice, i.v., 3 h): 0.20 ± 0.31 %ID/g
- Radioactivity in Spleen ([2]; normal ddY mice, i.v., 3 h): 0.07 ± 0.05 %ID/g
- Radioactivity in Stomach ([2]; normal ddY mice, i.v., 3 h): 0.27 ± 0.10^c %ID
- Radioactivity in Blood ([2]; normal ddY mice, i.v., 6 h): 0.03 ± 0.01 %ID/g
- Radioactivity in Bone ([2]; normal ddY mice, i.v., 6 h): 0.16 ± 0.17 %ID/g
- Radioactivity in Heart ([2]; normal ddY mice, i.v., 6 h): 0.03 ± 0.01 %ID/g
- Radioactivity in Intestine ([2]; normal ddY mice, i.v., 6 h): 6.19 ± 4.27 %ID
- Radioactivity in Kidney ([2]; normal ddY mice, i.v., 6 h): 17.5 ± 5.43^c %ID/g
- Radioactivity in Liver ([2]; normal ddY mice, i.v., 6 h): 0.05 ±0.03 %ID/g
- Radioactivity in Lung ([2]; normal ddY mice, i.v., 6 h): 0.08 ± 0.00^c %ID/g
- Radioactivity in Muscle ([2]; normal ddY mice, i.v., 6 h): 0.06 ± 0.07 %ID/g
- Radioactivity in Neck ([2]; normal ddY mice, i.v., 6 h): 0.07 ± 0.09 %ID
- Radioactivity in Pancreas ([2]; normal ddY mice, i.v., 6 h): 0.09 ± 0.12 %ID/g
- Radioactivity in Spleen ([2]; normal ddY mice, i.v., 6 h): 0.05 ± 0.05 %ID/g
- Radioactivity in Stomach ([2]; normal ddY mice, i.v., 6 h): 0.86 ± 0.65 %ID
- Radioactivity in Feces [2, 3]: 0.66 ± 0.50 %ID
- Radioactivity in Urine [2, 3]: 30.7 ± 2.85^c %ID
- Accumulation in the stomach and thyroid (stability against deiodination) ([2]; normal mice): low accumulation
Compound: O=C(O)CCC(NC(=O)NC(CCCCNC(=O)C(Cc1ccc2ccccc2c1)NC(=O)C(CCC(=O)O)NC(=O)C(CCC(=O)O)NC(=O)COCC(CO)(CO)C[125I])C(=O)O)C(=O)O [[^125I]I-NpG-D-PSMA]
